The text below walks through data of patent publication US4521538A (Medosan Industrie Biochimiche Riunite S.p.A., priority 1982, dated 1985).

The nature of data set [1]: Antiinflammatory activity, carrageenin-induced oedema test. The data set is classed as in vivo, rats. On the procedure: This effect was evaluated by means of an experimental model reproducing acute inflammation in rats: for this purpose the carrageenin-induced oedema test was employed following the method described by C. A. Winter (J. Pharmac. Exp. […] Wong, J. F. Gardocki and T. P. Pruss, J. Pharmac. Exp. Ther. 185 (1): 127, 1973). Table I lists the tested compounds, the concentration thereof, routes of administration and relative percentage oedema inhibitions; the data are commented upon at the end of the Tables.
(The carrageenan paw model is a standard test of acute inflammation.)

The format of data set [2] is in vivo, male Wistar rats. The following applies: for mean severity: scale 0 (no lesion) to 5 (perforations). The protocol:
Male Wistar rats weighing 180 g were randomized into groups of 10. Three doses of each compound were administered. One group received the vehicle alone (10 ml/kg b.w.). Each dose was given orally for four days consecutively and the rats were sacrificed on the fifth day for necropsy. The ulcerogenic effect was evaluated by the following scale:
(1) each haemorrhagic point at least 1 mm in diameter was scored as 1 lesion,
(2) haemorrhagic points less than 1 mm in diameter were scored in the following manner:
(c) 20 to 29=three lesions
(2) gastric mucosal irritation without haemorrhage: 1
(3) haemorrhagic points less than 1 mm in diameter: 2
(4) haemorrhagic points between 1 and 3 mm in diameter: 3
(5) haemorrhagic points larger than 3 mm in diameter: 4
By means of this scale it was possible to obtain the gastric damage index: [formula]

Data set [3] is described as follows: Analgesic activity, phenylquinone-induced writhing test. The data set is classed as in vivo. On the procedure:
The inhibiting effect on the abdominal contractions induced by phenyl-p-quinone was calculated by the following formula: [formula]
Table II lists the doses, routes of administration and their efficacy expressed as percentage of protection.
In general terms: Writhing tests count abdominal constrictions after an irritant is injected.

Data set [4] can be described thus: Antitussive activity (method of Y. Kase). The data set is classed as in vivo, albino male Guinea-pigs. On the procedure:
The antitussive effect on albino male Guinea-pigs weighing 300 g was evaluated using the method described by Y. Kase (Selected Pharmacological Testing Methods, p. 363, Marcel Dekker Inc., New York, 1968).

Data set [5] is described as follows: Mucolytic activity in vitro, consistency of human expectoration. The note with it: 12 experiments. On the procedure: The experiment was carried out "in vitro" according to the method of R. S. Hirsch (Bull. […] Table IV lists the percentage decrease of the expectoration consistency provoked by the compound of this invention in comparison with dithiothreitol and acetylcysteine which are known mucolytic agents.

Where a name gives a salt, the structure may show the parent alone. Read-outs that look alike come from different tables or passages of the source.

In the case of `Cc1ccc(C(=O)c2ccc(CC(=O)O)n2C)cc1` [Tolmetin Na.2H2 O, 1-mehtyl-5-p-toluoyl-2-acetic acid sodium salt dihydrate], the Oedema % inhibition was 28.0% in data set [1] (25 mg/kg i.p., 2 h); 29.1% in data set [1] (25 mg/kg i.p., 4 h); 32.1% in data set [1] (25 mg/kg i.p., 6 h); 8.9% in data set [1] (25 mg/kg i.p., 24 h); 24.6% in data set [1] (25 mg/kg per os, 2 h); 26.2% in data set [1] (25 mg/kg per os, 4 h). For the same compound, the Oedema % inhibition is 30.1% in data set [1] (25 mg/kg per os, 6 h); 6.2% in data set [1] (25 mg/kg per os, 24 h); 47.0% in data set [1] (50 mg/kg i.p., 2 h); 49.1% in data set [1] (50 mg/kg i.p., 4 h); 40.0% in data set [1] (50 mg/kg i.p., 6 h); 7.1% in data set [1] (50 mg/kg i.p., 24 h). The Oedema % inhibition turned out to be 43.1% in data set [1] (50 mg/kg per os, 2 h); 46.0% in data set [1] (50 mg/kg per os, 4 h); 41.3% in data set [1] (50 mg/kg per os, 6 h); 9.1% in data set [1] (50 mg/kg per os, 24 h); 64.1% in data set [1] (100 mg/kg i.p., 2 h); 65.8% in data set [1] (100 mg/kg i.p., 4 h). Besides, the Oedema % inhibition is reported as 60.2% in data set [1] (100 mg/kg i.p., 6 h); 11.2% in data set [1] (100 mg/kg i.p., 24 h); 60.8% in data set [1] (100 mg/kg per os, 2 h); 60.0% in data set [1] (100 mg/kg per os, 4 h); 64.5% in data set [1] (100 mg/kg per os, 6 h); 14.6% in data set [1] (100 mg/kg per os, 24 h). Moreover, the mean severity in data set [2] (50 mg/kg orally, four days) was found to be 2; in data set [2] (100 mg/kg orally, four days), 3.5; in data set [2] (200 mg/kg orally, four days) it was 4. Further, the “mean No. of lesions” value in data set [2] (100 mg/kg orally, four days) was found to be 2.5; in data set [2] (200 mg/kg orally, four days) it was 3; in data set [2] (rat, in vivo), 2. The “% protection” value in data set [3] (5 mg/kg i.p.) is reported as 16.5%; in data set [3] (5 mg/kg per os), 15.0%; in data set [3] (10 mg/kg i.p.), 46.2%; in data set [3] (10 mg/kg per os) it was 40.6%; in data set [3] (20 mg/kg i.p.), 69.1%; in data set [3] (20 mg/kg per os) it was 62.0%. For the same compound, the “% inhibition, amplitude of coughs” value in data set [4] (50 mg/kg i.p.) is given as 0%; in data set [4] (50 mg/kg per os), 0%; in data set [4] (75 mg/kg i.p.) it was 0%; in data set [4] (75 mg/kg per os), 7%; in data set [4] (100 mg/kg i.p.), 7%; in data set [4] (100 mg/kg per os) it was 5%. Besides, the “% inhibition, frequency of coughs” value in data set [4] (50 mg/kg i.p.) is 0%; in data set [4] (50 mg/kg per os), 0%; in data set [4] (75 mg/kg i.p.) it was 10%; in data set [4] (75 mg/kg per os), 0%; in data set [4] (100 mg/kg i.p.) it was 10%; in data set [4] (100 mg/kg per os) it was 5%.
As for `COc1ccc2c(c1)c(CC(=O)O)c(C)n2C(=O)c1ccc(Cl)cc1` [Indomethacin], the Oedema % inhibition in data set [1] (2.5 mg/kg i.p., 2 h) was 21.0%; in data set [1] (2.5 mg/kg i.p., 4 h), 20.0%; in data set [1] (2.5 mg/kg i.p., 6 h), 17.0%; in data set [1] (2.5 mg/kg i.p., 24 h), 2.5%; in data set [1] (2.5 mg/kg per os, 2 h), 18.6%; in data set [1] (2.5 mg/kg per os, 4 h) it was 20.7%. In addition, the Oedema % inhibition in data set [1] (2.5 mg/kg per os, 6 h) is given as 19.2%; in data set [1] (2.5 mg/kg per os, 24 h) it was 2.6%; in data set [1] (5 mg/kg i.p., 2 h) it was 30.0%; in data set [1] (5 mg/kg i.p., 4 h), 29.0%; in data set [1] (5 mg/kg i.p., 6 h) it was 23.0%; in data set [1] (5 mg/kg i.p., 24 h), 3.4%. Also, the Oedema % inhibition stood at 26.3% in data set [1] (5 mg/kg per os, 2 h); 29.1% in data set [1] (5 mg/kg per os, 4 h); 28.5% in data set [1] (5 mg/kg per os, 6 h); 2.7% in data set [1] (5 mg/kg per os, 24 h); 49.7% in data set [1] (10 mg/kg i.p., 2 h); 46.0% in data set [1] (10 mg/kg i.p., 4 h). For the same compound, the Oedema % inhibition is 48.1% in data set [1] (10 mg/kg i.p., 6 h); 8.0% in data set [1] (10 mg/kg i.p., 24 h); 48.2% in data set [1] (10 mg/kg per os, 2 h); 49.0% in data set [1] (10 mg/kg per os, 4 h); 46.0% in data set [1] (10 mg/kg per os, 6 h); 7.9% in data set [1] (10 mg/kg per os, 24 h).
Regarding `CC(=O)N[C@@H](CS)C(=O)O` [acetylcysteine], the “% decrease of expectoration consistency” value in data set [5] ([…] (20.0%)) was determined as 81%.
Take `O[C@H](CS)[C@H](O)CS` (racemic) [Dithiothreitol]: the “% decrease of expectoration consistency” value in data set [5] (0.1 M (1.5%)) came out at 90%.
